Starred links: 1 amine or outer side, 2 acyl side, 3 side chain; linkers in the order of their positions; H or OH if unused. Positions of bridges follow the written chain, without caps; N, C: chain ends. Non-standard residues stand in square brackets, D forms with d. Residues, ends and D or L forms follow the SMILES beside them. Groups on a side chain read outwards from the residue. *: point of attachment. Phe(4-NH2) = Nc1ccc(C[C@H](N)C(=O)O)cc1; X1 = O=C(Cc1ccc(N[*:1])cc1)[*:2]; NH(2-Me-phenyl) = Cc1ccccc1N*; CO = O=C([*:1])[*:2]
What was measured:
α4β1 integrin [1] = target: T1, α4β1 integrin (Homo sapiens, UniProt P05556+P13612); assay: Jurkat E6.1 cell adhesion to FN; conditions: agonist = adhesion index >1, antagonist = adhesion index <1
T1 sequence (P05556 21-798, one chain of several): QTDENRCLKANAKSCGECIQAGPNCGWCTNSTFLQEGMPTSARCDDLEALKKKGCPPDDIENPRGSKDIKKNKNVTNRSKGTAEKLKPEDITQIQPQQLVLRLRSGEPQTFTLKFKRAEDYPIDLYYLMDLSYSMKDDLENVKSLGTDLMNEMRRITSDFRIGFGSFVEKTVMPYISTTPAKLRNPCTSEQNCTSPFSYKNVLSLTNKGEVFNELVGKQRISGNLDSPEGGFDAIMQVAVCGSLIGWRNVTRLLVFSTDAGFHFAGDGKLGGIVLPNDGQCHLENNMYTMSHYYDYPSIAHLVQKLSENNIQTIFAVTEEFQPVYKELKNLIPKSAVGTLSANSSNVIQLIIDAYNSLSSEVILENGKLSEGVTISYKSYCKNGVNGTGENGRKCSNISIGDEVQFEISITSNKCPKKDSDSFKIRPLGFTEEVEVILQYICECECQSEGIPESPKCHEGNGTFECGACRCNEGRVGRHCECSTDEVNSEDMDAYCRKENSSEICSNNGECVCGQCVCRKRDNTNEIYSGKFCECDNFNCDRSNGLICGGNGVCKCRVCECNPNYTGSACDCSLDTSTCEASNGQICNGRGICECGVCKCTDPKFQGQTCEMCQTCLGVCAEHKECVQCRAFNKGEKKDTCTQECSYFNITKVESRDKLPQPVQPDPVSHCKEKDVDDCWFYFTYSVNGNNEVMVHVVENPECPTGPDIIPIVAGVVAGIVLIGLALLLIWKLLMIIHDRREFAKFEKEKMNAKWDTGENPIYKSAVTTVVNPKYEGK
Procedure: (§1) Cells were seeded in 96-well plates coated with the specific natural human recombinant ligands (Table 1) and allowed to adhere in the presence of increasing concentrations (10^–10 to 10^–4 M) of the synthesized CPPs before the determination of the number of adherent cells (as described in Experimental Section).
(§2) For adhesion assays on Jurkat E6.1, RPMI8866, or HL60 cells, black 96-well plates were coated overnight at 4 °C with VCAM-1 or ICAM-1 or MAdCAM-1 (5 μg/mL) or Fg (10 μg/mL). The cells were counted, stained with CellTracker green CMFDA (12.5 μM, 30 min at 37 °C, Life Technologies), and after three washes, were preincubated with increasing concentrations of new CPP (10^–10 to 10^–4 M) or with the vehicle (methanol) for 30 min at 37 °C. Then cells were plated (500 000/well) on coated wells and incubated for 30 min at 37 °C. After three washes, adhered cells were lysed with 0.5% Triton X-100 in PBS (30 min at 4 °C) and fluorescence was measured (Ex485 nm/Em535 nm) in an EnSpire Multimode Plate Reader (PerkinElmer, Waltham, MA). For adhesion assays mediated by α5β1 integrin, 96-well plates were coated by passive adsorption with FN (10 μg/mL) overnight at 4 °C. K562 cells were counted and preincubated with various concentrations of the peptides or with the vehicle (methanol) for 30 min at RT. Afterward, the cells were plated (50 000 cells/well) and incubated at RT for 1 h. The wells were then washed with 1% BSA in PBS (phosphate-buffered saline) to take off nonadherent cells, and 50 μL of hexosaminidase substrate was added; after addition of 100 μL of stopping solution, the plates were read at 405 nm. In both types of adhesion assay, the number of adherent cells was determined by comparison with a standard curve made in the same plate. Experiments were carried out in quadruplicate and repeated at least three times.
(§3) Jurkat E6.1 (expressing α4β1 and αLβ2 integrin), K562 (expressing α5β1 integrin) and HL60 (expressing αMβ2 integrin) cell lines were purchased from ATCC (Rockville, MD, USA); these cells were routinely cultured in RPMI-1640 (Life Technologies) supplemented with glutamine and 10% FBS.
(§4) Cells were grown at 37 °C under 5% CO2 humidified atmosphere.

[2] = test system: ERK1/2 phosphorylation mediated by α4β1 integrin; assay: ERK1/2 phosphorylation in Jurkat E6.1 cells (Western blot); assay type: cell-based; conditions: compound 10^–7 to 10^–9 M, no FN, vs vehicle
Procedure: Intracellular signaling generated by the interaction of ECM components with α4β1 integrin produces an increase in the phosphorylation of cytoplasmatic second messengers such as ERK1/2 that contribute to α4 integrin-mediated cell functions.
Western blot analysis was performed as previously described, with the following modifications. […] On the other hand, after 1 h incubation with integrin antagonists, the cells were then seeded on FN (10 μg/mL) coated plates for 1 h. Integrin agonists were not incubated with FN. At the end of the incubation time, Jurkat E6.1 cells were lysed on ice using a mammalian protein extraction reagent (M-PER; Pierce, Rockford, IL) supplemented with a phosphatase inhibitor cocktail. Protein extracts were quantified using a BCA protein assay kit (Pierce), separated by 12% SDS-PAGE gel, transferred onto nitrocellulose membranes, and immunoblotted with anti-phospho-ERK1/2 (1:1000) (Cell Signaling Technology, Danvers, MA) or anti-total ERK1/2 antibodies (1:2500) (Cell Signaling Technology). Protocols for digital image acquisition and analysis have been previously described.[73] Densitometric analysis of the bands is reported (mean ± SD; n = 3); the amount of phosphorylated ERK1/2 (pERK1/2) is normalized to that of total ERK1/2 (totERK1/2). Experiments were replicated independently at least three times. Statistical analyses were performed using one-way ANOVA and the post hoc Newman–Keuls test.

α4β1 integrin [3] = target: T1, α4β1 integrin; assay: Jurkat E6.1 cell adhesion to VCAM-1; conditions: agonist = adhesion index >1, antagonist = adhesion index <1
Procedure: as §1, §2, §3, §4

α4β7 integrin = target: T2, α4β7 integrin (Homo sapiens, UniProt P13612+P26010); assay: cell-based; assay type: cell-based; conditions: for agonist or antagonist behaviour, MAdCAM-1/RPMI8866 α4β7: agonist = adhesion index >1, antagonist = adhesion index <1
T2 construct: RPMI8866 cells expressing α4β7 integrin to the ligand MAdCAM-1; endogenous in cells; host or cells: RPMI8866
T2 sequence (P13612 34-1032): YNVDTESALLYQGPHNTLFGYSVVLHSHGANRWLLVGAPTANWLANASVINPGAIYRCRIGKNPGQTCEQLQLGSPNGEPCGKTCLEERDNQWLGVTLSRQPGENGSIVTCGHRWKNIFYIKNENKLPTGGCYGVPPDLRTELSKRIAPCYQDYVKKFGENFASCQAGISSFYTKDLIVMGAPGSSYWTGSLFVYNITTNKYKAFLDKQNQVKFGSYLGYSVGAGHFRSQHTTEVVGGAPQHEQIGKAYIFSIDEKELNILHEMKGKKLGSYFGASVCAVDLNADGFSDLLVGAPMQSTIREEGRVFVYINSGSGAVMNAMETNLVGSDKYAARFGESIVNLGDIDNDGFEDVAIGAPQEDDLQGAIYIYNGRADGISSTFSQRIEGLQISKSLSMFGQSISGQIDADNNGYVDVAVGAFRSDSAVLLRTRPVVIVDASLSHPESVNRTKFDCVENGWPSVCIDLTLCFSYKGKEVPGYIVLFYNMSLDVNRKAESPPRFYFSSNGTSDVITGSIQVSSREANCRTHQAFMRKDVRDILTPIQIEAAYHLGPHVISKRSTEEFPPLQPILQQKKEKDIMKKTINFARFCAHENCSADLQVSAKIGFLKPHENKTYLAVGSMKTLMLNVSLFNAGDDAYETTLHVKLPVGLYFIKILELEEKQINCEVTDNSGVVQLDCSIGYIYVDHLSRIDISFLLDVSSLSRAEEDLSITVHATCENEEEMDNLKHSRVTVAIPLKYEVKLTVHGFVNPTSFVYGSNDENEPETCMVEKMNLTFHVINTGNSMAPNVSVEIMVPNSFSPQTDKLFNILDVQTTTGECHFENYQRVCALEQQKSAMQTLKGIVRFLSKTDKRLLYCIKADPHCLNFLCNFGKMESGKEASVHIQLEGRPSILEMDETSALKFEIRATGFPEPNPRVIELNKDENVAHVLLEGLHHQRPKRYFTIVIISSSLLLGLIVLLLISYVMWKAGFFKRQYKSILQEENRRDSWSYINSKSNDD
T2 sequence (P26010 20-798): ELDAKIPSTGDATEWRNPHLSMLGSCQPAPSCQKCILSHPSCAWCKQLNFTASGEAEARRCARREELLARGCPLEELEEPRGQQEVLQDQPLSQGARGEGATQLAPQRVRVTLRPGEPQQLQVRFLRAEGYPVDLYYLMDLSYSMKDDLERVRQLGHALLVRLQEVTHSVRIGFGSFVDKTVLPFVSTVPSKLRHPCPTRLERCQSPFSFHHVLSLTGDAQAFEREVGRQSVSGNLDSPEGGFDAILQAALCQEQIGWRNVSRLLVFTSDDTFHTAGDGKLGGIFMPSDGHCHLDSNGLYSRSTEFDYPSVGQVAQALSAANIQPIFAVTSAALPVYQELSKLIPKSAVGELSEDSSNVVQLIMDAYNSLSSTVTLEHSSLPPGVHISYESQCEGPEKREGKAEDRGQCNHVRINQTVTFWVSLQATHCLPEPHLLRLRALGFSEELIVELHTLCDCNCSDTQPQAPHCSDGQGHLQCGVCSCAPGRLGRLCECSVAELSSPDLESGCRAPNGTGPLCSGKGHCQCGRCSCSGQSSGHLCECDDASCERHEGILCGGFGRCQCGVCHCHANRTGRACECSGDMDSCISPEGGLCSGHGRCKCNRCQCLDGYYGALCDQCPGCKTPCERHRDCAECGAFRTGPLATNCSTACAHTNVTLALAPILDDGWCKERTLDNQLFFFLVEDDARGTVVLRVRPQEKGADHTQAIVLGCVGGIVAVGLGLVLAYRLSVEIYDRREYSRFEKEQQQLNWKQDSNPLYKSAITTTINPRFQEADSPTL
From the text: mediated Jurkat cell adhesion to FN.

[4] = after 2 h, 37 °C, RP HPLC
Procedure: Enzymatic stability tests were carried out in triplicate and repeated three times using mouse serum (Sigma-Aldrich). Peptides was dissolved in Tris buffer pH 7.4 to a 10 mM concentration, and 10 mL aliquots were added to 190 mL of serum. Incubations were maintained at 37 °C, and 20 mL aliquots were sampled from the incubation mixtures at the indicated times of 0, 0.15, 0.5, 1.0, 2.0, and 3.0 h. Samples were diluted with 90 mL of CH3CN, and enzymatic activity was definitively stopped by adding 90 mL of 0.5% AcOH. After centrifugation (13 000g for 20 min), the supernatants were separated and the amount of remaining peptide was assessed by RP HPLC.

αLβ2 integrin = αLβ2 integrin (Homo sapiens, UniProt P05107+P20701); assay: Jurkat E6.1 cell adhesion to ICAM-1
αLβ2 integrin, sequence (P20701 26-1170): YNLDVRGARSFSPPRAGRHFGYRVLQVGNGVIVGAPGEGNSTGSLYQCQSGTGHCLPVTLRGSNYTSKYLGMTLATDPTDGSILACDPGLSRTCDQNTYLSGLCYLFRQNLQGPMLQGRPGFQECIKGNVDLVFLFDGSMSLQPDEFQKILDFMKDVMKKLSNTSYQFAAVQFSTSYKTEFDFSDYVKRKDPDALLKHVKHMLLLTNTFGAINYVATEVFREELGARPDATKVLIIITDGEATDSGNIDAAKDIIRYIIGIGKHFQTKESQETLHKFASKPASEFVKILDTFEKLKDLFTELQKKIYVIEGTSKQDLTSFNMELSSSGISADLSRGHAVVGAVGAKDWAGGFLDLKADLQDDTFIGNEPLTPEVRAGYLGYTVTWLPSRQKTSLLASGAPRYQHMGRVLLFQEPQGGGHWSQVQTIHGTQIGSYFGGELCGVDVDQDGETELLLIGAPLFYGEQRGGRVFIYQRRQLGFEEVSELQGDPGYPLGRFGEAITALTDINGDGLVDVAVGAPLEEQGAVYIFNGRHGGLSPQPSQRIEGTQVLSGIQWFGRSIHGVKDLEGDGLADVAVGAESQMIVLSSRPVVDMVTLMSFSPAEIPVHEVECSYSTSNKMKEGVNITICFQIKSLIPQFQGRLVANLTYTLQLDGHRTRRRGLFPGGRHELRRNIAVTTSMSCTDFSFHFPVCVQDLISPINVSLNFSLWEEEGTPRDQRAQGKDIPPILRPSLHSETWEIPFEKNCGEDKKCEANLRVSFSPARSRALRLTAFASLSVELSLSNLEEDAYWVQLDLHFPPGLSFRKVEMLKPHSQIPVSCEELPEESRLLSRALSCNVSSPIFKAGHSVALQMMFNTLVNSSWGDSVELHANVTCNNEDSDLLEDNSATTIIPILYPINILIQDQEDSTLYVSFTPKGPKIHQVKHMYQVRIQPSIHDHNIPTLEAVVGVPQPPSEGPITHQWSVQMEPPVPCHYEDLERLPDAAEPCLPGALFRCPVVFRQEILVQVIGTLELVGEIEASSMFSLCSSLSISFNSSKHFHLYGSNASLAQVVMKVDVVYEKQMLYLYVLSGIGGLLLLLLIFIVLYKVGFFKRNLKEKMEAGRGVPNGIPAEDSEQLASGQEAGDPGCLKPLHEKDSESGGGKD
αLβ2 integrin, sequence (P05107 23-769): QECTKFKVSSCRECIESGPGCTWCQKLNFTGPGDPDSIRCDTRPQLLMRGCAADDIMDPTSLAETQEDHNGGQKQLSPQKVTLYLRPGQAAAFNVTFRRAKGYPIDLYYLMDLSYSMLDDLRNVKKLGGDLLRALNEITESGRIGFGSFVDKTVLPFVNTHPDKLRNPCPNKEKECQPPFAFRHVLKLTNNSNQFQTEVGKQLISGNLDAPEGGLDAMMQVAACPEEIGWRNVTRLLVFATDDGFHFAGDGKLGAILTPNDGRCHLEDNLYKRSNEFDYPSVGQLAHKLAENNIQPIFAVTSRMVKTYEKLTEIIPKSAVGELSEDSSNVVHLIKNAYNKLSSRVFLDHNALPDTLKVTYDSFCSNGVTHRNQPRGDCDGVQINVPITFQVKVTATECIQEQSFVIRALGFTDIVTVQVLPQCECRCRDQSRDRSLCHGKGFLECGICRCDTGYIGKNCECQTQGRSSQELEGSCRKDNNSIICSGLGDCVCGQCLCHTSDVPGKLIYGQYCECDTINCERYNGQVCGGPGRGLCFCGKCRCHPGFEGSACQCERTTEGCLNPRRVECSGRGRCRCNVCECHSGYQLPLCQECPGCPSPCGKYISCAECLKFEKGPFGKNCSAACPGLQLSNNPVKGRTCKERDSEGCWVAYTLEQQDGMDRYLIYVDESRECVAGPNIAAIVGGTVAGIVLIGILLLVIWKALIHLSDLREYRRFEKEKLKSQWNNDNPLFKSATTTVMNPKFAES
Procedure: as §1
For adhesion assays on Jurkat E6.1, RPMI8866, or HL60 cells, black 96-well plates were coated overnight at 4 °C with VCAM-1 or ICAM-1 or MAdCAM-1 (5 μg/mL) or Fg (10 μg/mL). The cells were counted, stained with CellTracker green CMFDA (12.5 μM, 30 min at 37 °C, Life Technologies), and after three washes, were preincubated with increasing concentrations of new CPP (10^–10 to 10^–4 M) or with the vehicle (methanol) for 30 min at 37 °C. […] After three washes, adhered cells were lysed with 0.5% Triton X-100 in PBS (30 min at 4 °C) and fluorescence was measured (Ex485 nm/Em535 nm) in an EnSpire Multimode Plate Reader (PerkinElmer, Waltham, MA). […] K562 cells were counted and preincubated with various concentrations of the peptides or with the vehicle (methanol) for 30 min at RT. […] The wells were then washed with 1% BSA in PBS (phosphate-buffered saline) to take off nonadherent cells, and 50 μL of hexosaminidase substrate was added; after addition of 100 μL of stopping solution, the plates were read at 405 nm. […]

α4β1 integrin [5] = test system: α4β1 integrin; design: method as in PMID 23703610; conditions: low affinity agonist; cited from earlier work

| Compound | agonist or antagonist behaviour, FN/Jurkat E6.1 α4β1 (α4β1 integrin [1]) | effect on ERK1/2 phosphorylation, compound administered alone [2] | agonist or antagonist behaviour, VCAM-1/Jurkat E6.1 α4β1 (α4β1 integrin [3]) | agonist or antagonist behaviour, MAdCAM-1/RPMI8866 α4β7 (α4β7 integrin) | stability in mouse serum [4] | IC50 (αLβ2 integrin) [µM] | IC50 (α4β7 integrin) [µM] | IC50 (α4β1 integrin [5]) [µM] |
| --- | --- | --- | --- | --- | --- | --- | --- | --- |
| Cc1ccccc1NC(=O)Nc1ccc(C[C@@H]2NC(=O)C[C@@H](C(=O)O)NC(=O)[C@H](C(C)C)NC(=O)[C@H](CC(=O)O)NC(=O)[C@H](CC(C)C)NC2=O)cc1 [3a, c[(S)-Phu-Leu-Asp-Val-(S)-isoAsp]] ([Phe(4-NH2)]([CO-NH(2-Me-phenyl)])LDVD-OH; lactam N-5 (inferred)) | agonist | significant concentration-dependent increase of ERK1/2 phosphorylation | agonist | agonist |  |  |  |  |
| Cc1ccccc1NC(=O)Nc1ccc(CC(=O)N[C@@H](CC(C)C)C(=O)N[C@@H](CC(=O)O)C(=O)N[C@H](C(=O)N2CCC[C@H]2C(=O)O)C(C)C)cc1 [BIO1211, MPUPA-LDVP-OH] ({NH(2-Me-phenyl)-CO}-[X1]LDVP-OH) |  |  |  | inactive | almost completely hydrolyzed |  |  |  |
| Cc1ccccc1NC(=O)Nc1ccc(C[C@@H]2NC(=O)C[C@@H](C(=O)O)NC(=O)[C@H](C(C)C)NC(=O)[C@H](C)NC(=O)[C@H](CC(C)C)NC2=O)cc1 [12a, c[(S)-Phu-Leu-Ala-Val-(S)-isoAsp]] ([Phe(4-NH2)]([CO-NH(2-Me-phenyl)])LAVD-OH; lactam N-5 (inferred)) | agonist | significant concentration-dependent increase of ERK1/2 phosphorylation | agonist | completely lost activity |  | > 5 | > 5 |  |
| CCCC[C@@H](COC(=O)N(Cc1cccs1)Cc1cccs1)NC(=O)N[C@@H](CC(=O)OC)c1ccc2c(c1)OCO2 [THI0019] |  |  |  |  |  |  |  | 1000 to 2000 |

Source: PMC10108353, “Design and Pharmacological Characterization of α4β1 Integrin Cyclopeptide Agonists: Computational Investigation of Ligand Determinants for Agonism versus Antagonism” (Journal of Medicinal Chemistry, 2023)
